The text below walks through data of patent US10765754B2, “Compositions and methods related to inhibition of respiratory syncytial virus entry” (priority 2015, dated 2020).

Positions of bridges follow the written chain, without caps; N, C: chain ends. Non-standard residues stand in square brackets, D forms with d. Residues, ends and D or L forms follow the SMILES beside them.

In the test the target is T1, RSV-B/IZN45 (Human respiratory syncytial virus B, UniProt O36634).
T1 construct: N-trimer Mimics Synthesized; made in house; host or cells: chemical peptide synthesis
T1 sequence (O36634 163-207, added parts left off): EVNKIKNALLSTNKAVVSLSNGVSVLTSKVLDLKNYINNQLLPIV
Description: biochemical. Type of test: binding. The settings on record: synthesized peptide; RSV-B/IZN45; KD determined by SPR. An excerpt:
IZN45 N-trimer mimic comprises the IZ domain, a highly soluble, designed coiled-coil that helps solubilize the N-trimer, along with the C-terminal (bottom) 45 residues of the RSV N-trimer. IZN45 encompasses the full ordered portion of the N-trimer except for three N-terminal residues (removed to maintain a continuous heptad repeat with the IZ domain). The interactions between 35-residue RSV C-peptides, T108 and T118 (Lambert et al., 1996, Proc. Natl. Acad. Sci. USA 93:2186-2191), and IZN45 was examined by surface plasmon resonance (SPR). SPR is a gold standard assay to measure the kinetics and affinity of biological interactions. […] The Biotinylated L-form of RSV target IZN45 was captured onto one lane of a NeutrAvidin coated SPR chip. A mutant version of IZN45 containing four mutated residues along the N-trimer groove designed to disrupt binding (IZN45 Full Mut, negative control) was captured onto a separate lane of the NeutrAvidin chip. T118, corresponding to the C-terminal portion of the RSV F ectodomain, which is known to interact with the RSV N-trimer groove, was flowed over the various surfaces. […] The surfaces were regenerated with a detergent (0.1% SDS) after each injection of analyte. Various concentrations of T118 were measured in duplicate or triplicate injections. D-peptide interactions with IZN45 and IZN45-Full Mut surfaces were also measured using this method.
Peptides from the ‘winning’ phage clones from each library were synthesized as D-peptides. If solubility of the peptides was limited, N- or C-terminal charged residue(s) (e.g., lysine) were attached as necessary as previously described for HIV peptides in Eckert et al., 1999, Cell 99:103-15, incorporated by reference in its entirety. Binding affinity and kinetics of the D-peptide inhibitors to the IZN45 and IZN45 mutants was characterized by SPR (Biacore 3000), using methods as described in Welch et al., 2007, Proc. Natl. Acad. Sci. USA 104:16828-33, incorporated by reference in its entirety.
In general terms: SPR reads the build-up and loss of mass on a sensor chip optically.
A word on the Kd: it is the equilibrium constant for the complex coming apart. In turn, `CC[C@@H](C)[C@@H](NC(=O)[C@@H](CC(=O)O)NC(=O)[C@@H](CC(=O)O)NC(=O)[C@@H](Cc1c[nH]c2ccccc12)NC(=O)[C@@H](Cc1c[nH]c2ccccc12)NC(=O)[C@H]1CCCN1C(=O)[C@@H](CCC(N)=O)NC(=O)[C@@H](CC(C)C)NC(=O)[C@H]1CCCN1C(=O)[C@@H](CC(C)C)NC(=O)[C@@H](Cc1c[nH]c2ccccc12)NC(=O)[C@H](N)Cc1c[nH]cn1)C(=O)N1CCC[C@@H]1C(=O)N[C@@H](C(=O)N[C@H](Cc1c[nH]c2ccccc12)C(=O)N[C@H](Cc1c[nH]cn1)C(=O)NCC(=O)N[C@H](CCCCN)C(N)=O)C(C)C` [X16-20-GK] (H-[dH][dW][dL][dP][dL][dQ][dP][dW][dW][dD][dD][dI][dP][dV][dW][dH]G[dK]-NH2) came in with an equilibrium dissociation constant (Kd) of 2 µM. `CSCC[C@@H](NC(=O)[C@@H](Cc1c[nH]c2ccccc12)NC(=O)[C@@H](Cc1c[nH]c2ccccc12)NC(=O)[C@@H](Cc1ccc(O)cc1)NC(=O)[C@@H](CCCCN)NC(=O)[C@@H](CC(C)C)NC(=O)[C@@H](CO)NC(C)=O)C(=O)N[C@H](CCC(=O)O)C(=O)N[C@H](CCC(=O)O)C(=O)N[C@H](CC(C)C)C(=O)N1CCC[C@@H]1C(=O)N[C@H](CC(C)C)C(=O)N1CCC[C@@H]1C(=O)N[C@H](CCCCN)C(=O)N[C@H](Cc1c[nH]c2ccccc12)C(=O)N[C@H](Cc1c[nH]c2ccccc12)C(N)=O` [Ac-X16-18] (Ac-[dS][dL][dK][dY][dW][dW][dM][dE][dE][dL][dP][dL][dP][dK][dW][dW]-NH2) had a dissociation constant (Kd) of 11 µM. As to `CC[C@@H](C)[C@@H](NC(C)=O)C(=O)N[C@H](CO)C(=O)N[C@H](CC(C)C)C(=O)N1CCC[C@@H]1C(=O)N[C@@H](C(=O)N1CCC[C@@H]1C(=O)N[C@@H](C(=O)N[C@H](Cc1c[nH]c2ccccc12)C(=O)N[C@H](Cc1c[nH]c2ccccc12)C(=O)N1CCC[C@@H]1C(=O)N[C@H](CO)C(=O)N[C@@H](C(=O)NCC(=O)NCC(N)=O)[C@H](C)O)[C@H](C)O)[C@H](C)O` [Ac-X12-45-GG] (Ac-[dI][dS][dL][dP][dT][dP][dT][dW][dW][dP][dS][dT]GG-NH2), the equilibrium dissociation constant (Kd) was determined as 25 µM. In turn, `CC[C@@H](C)[C@@H](NC(=O)[C@H](NC(=O)[C@@H](CCCCN)NC(=O)[C@H](N)CO)C(C)C)C(=O)N[C@H](CC(C)C)C(=O)N1CCC[C@@H]1C(=O)N[C@H](CCC(=O)O)C(=O)N1CCC[C@@H]1C(=O)N[C@H](Cc1ccccc1)C(=O)N[C@H](Cc1c[nH]c2ccccc12)C(=O)N[C@H](Cc1c[nH]c2ccccc12)C(=O)N1CCC[C@@H]1C(=O)NCC(=O)NCC(N)=O` [X12-47-GG] (H-[dS][dK][dV][dI][dL][dP][dE][dP][dF][dW][dW][dP]GG-NH2) showed a dissociation constant Kd of 17 µM.

On to `CSCC[C@@H](NC(=O)[C@@H](Cc1c[nH]c2ccccc12)NC(=O)[C@@H](Cc1c[nH]c2ccccc12)NC(=O)[C@@H](Cc1ccc(O)cc1)NC(=O)[C@@H](CCCCN)NC(=O)[C@@H](CC(C)C)NC(=O)[C@@H](CO)NC(C)=O)C(=O)N[C@H](CCC(=O)O)C(=O)N[C@H](CCC(=O)O)C(=O)N[C@H](CC(C)C)C(=O)N1CCC[C@@H]1C(=O)N[C@H](CC(C)C)C(=O)N1CCC[C@@H]1C(=O)N[C@H](CCCCN)C(=O)N[C@H](Cc1c[nH]c2ccccc12)C(=O)N[C@H](Cc1c[nH]c2ccccc12)C(=O)NCC(=O)NCC(N)=O` [Ac-X16-18-GG] (Ac-[dS][dL][dK][dY][dW][dW][dM][dE][dE][dL][dP][dL][dP][dK][dW][dW]GG-NH2), for which the Kd was determined as 5.4 µM. In turn, `CC[C@@H](C)[C@@H](NC(=O)[C@H](NC(=O)[C@@H](CCCCN)NC(=O)[C@H](N)CO)C(C)C)C(=O)N[C@H](CC(C)C)C(=O)N1CCC[C@@H]1C(=O)N[C@H](CCC(=O)O)C(=O)N1CCC[C@@H]1C(=O)N[C@H](Cc1ccccc1)C(=O)N[C@H](Cc1c[nH]c2ccccc12)C(=O)N[C@H](Cc1c[nH]c2ccccc12)C(=O)N1CCC[C@@H]1C(N)=O` [X12-47] (H-[dS][dK][dV][dI][dL][dP][dE][dP][dF][dW][dW][dP]-NH2) showed a Kd of 10 µM. Take `CC[C@@H](C)[C@@H](NC(=O)[C@H](NC(=O)[C@@H](CCCCN)NC(=O)[C@@H](CO)NC(C)=O)C(C)C)C(=O)N[C@H](CC(C)C)C(=O)N1CCC[C@@H]1C(=O)N[C@H](CCC(=O)O)C(=O)N1CCC[C@@H]1C(=O)N[C@H](Cc1ccccc1)C(=O)N[C@H](Cc1c[nH]c2ccccc12)C(=O)N[C@H](Cc1c[nH]c2ccccc12)C(=O)N1CCC[C@@H]1C(=O)NCC(=O)NCC(N)=O` [Ac-X12-47-GG] (Ac-[dS][dK][dV][dI][dL][dP][dE][dP][dF][dW][dW][dP]GG-NH2): the dissociation constant Kd came out at 15 µM. Take `CC[C@@H](C)[C@H]1NC(=O)[C@@H](CCCCN)NC(=O)[C@H](NC(=O)[C@@H](C)NC(=O)CNC(C)=O)CSSC[C@H](C(=O)N[C@H](C)C(=O)N[C@H](C)C(=O)NCC(=O)NCC(N)=O)NC(=O)[C@@H](CC(=O)O)NC(=O)[C@@H](Cc2c[nH]cn2)NC(=O)[C@@H](Cc2c[nH]c3ccccc23)NC(=O)[C@@H](Cc2c[nH]cn2)NC(=O)[C@@H](Cc2ccccc2)NC(=O)[C@@H](CC(C)C)NC(=O)[C@@H](CC(=O)O)NC(=O)[C@@H](Cc2c[nH]cn2)NC1=O` [Ac-CX10C-119-GG] (Ac-G[dA][dC][dK][dI][dH][dD][dL][dF][dH][dW][dH][dD][dC][dA][dA]GG-NH2; disulfide 3-14): the Kd came to 30 µM. Compared with the last compound, the Kd is about 2-fold higher. Compound `CC[C@@H](C)[C@@H](N)C(=O)N[C@H](CO)C(=O)N[C@H](CC(C)C)C(=O)N1CCC[C@@H]1C(=O)N[C@@H](C(=O)N1CCC[C@@H]1C(=O)N[C@@H](C(=O)N[C@H](Cc1c[nH]c2ccccc12)C(=O)N[C@H](Cc1c[nH]c2ccccc12)C(=O)N1CCC[C@@H]1C(=O)N[C@H](CO)C(=O)N[C@@H](C(=O)NCC(=O)NCC(N)=O)[C@H](C)O)[C@H](C)O)[C@H](C)O` [X12-45-GG] (H-[dI][dS][dL][dP][dT][dP][dT][dW][dW][dP][dS][dT]GG-NH2) came in with a dissociation constant (Kd) of 11 µM. In turn, `CC[C@@H](C)[C@H]1NC(=O)[C@@H](CCCCN)NC(=O)[C@H](NC(=O)[C@@H](C)NC(=O)CNC(C)=O)CSSC[C@H](C(=O)N[C@H](C)C(=O)N[C@H](C)C(N)=O)NC(=O)[C@@H](CC(=O)O)NC(=O)[C@@H](Cc2c[nH]cn2)NC(=O)[C@@H](Cc2c[nH]c3ccccc23)NC(=O)[C@@H](Cc2c[nH]cn2)NC(=O)[C@@H](Cc2ccccc2)NC(=O)[C@@H](CC(C)C)NC(=O)[C@@H](CC(=O)O)NC(=O)[C@@H](Cc2c[nH]cn2)NC1=O` [Ac-CX10C-119] (Ac-G[dA][dC][dK][dI][dH][dD][dL][dF][dH][dW][dH][dD][dC][dA][dA]-NH2; disulfide 3-14) showed an equilibrium dissociation constant (Kd) of 280 µM. This Kd is about 25-fold higher than that of the compound before. The same measure for `CC[C@@H](C)[C@@H](N)C(=O)N[C@H](CO)C(=O)N[C@H](CC(C)C)C(=O)N1CCC[C@@H]1C(=O)N[C@@H](C(=O)N1CCC[C@@H]1C(=O)N[C@@H](C(=O)N[C@H](Cc1c[nH]c2ccccc12)C(=O)N[C@H](Cc1c[nH]c2ccccc12)C(=O)N1CCC[C@@H]1C(=O)N[C@H](CO)C(=O)N[C@@H](C(=O)NCC(=O)N[C@H](CCCCN)C(N)=O)[C@H](C)O)[C@H](C)O)[C@H](C)O` [X12-45-GK] (H-[dI][dS][dL][dP][dT][dP][dT][dW][dW][dP][dS][dT]G[dK]-NH2): 6 µM.
